Assays:
[1] = test system: Orobanche cumana (Race F); assay: Test F sequential application to control Orobanche cumana; type: in vivo
Description: A greenhouse experiment was performed to identify the best sequential program compared to straight application of tribenuron-methyl or metsulfuron-methyl for control of Orobanche cumana (Race F). The dose range for optimum efficacy was also studied. Both herbicides were used as formulated compositions. […] BC4-M5M7×PHA155 is referred to below as “Hybrid 7”, and BC4-M5M12×PHA155 is referred to below as “Hybrid 12”.
Seed coating treatment was performed as described for Test D. Post-emergence treatments were applied at the 2-4 leaf stage of sunflower (corresponding to early stage of Orobanche attachment; identified as “T1”), the 6 leaf stage of sunflower (corresponding to the mid stage of Orobanche attachment; nodules <5 mm diameter; identified as “T2”) and 8 leaf stage of sunflower (corresponding to late stage of Orobanche attachment; identified as “T3”).
The efficacy was evaluated visually as described for Test D except that the efficacy was assessed ten days later than for Tests D and E. The later evaluation allowed observing any reduction of efficacy due to late Orobanche emergence or re-growth of treated nodules. Efficacy in controlling Orobanche attached to roots was evidenced by nodules comprising black necrotic tissues with no apparent active meristematic area. These nodules could be easily crushed between fingers.

BC4-M5M7 = assay: Test B greenhouse phytotoxicity, BC4-M5M7; type: in vivo, sunflower; conditions: in vivo
How it was run: (§1)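 Formulated ALS-inhibiting herbicides sprayed post-emergence at the 4-leaf stage on homozygous mutant sunflower inbreds (M5 maintainers and BC4 male-sterile back-crosses) in the greenhouse, at rates commonly used in registered crops. Two replicates; crop injury rated as % phytotoxicity, 0% meaning no injury.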

BC4-M5M12 × PHA155 = assay: Test C field phytotoxicity, BC4-M5M12 × PHA155; type: in vivo, sunflower
Description: A rating of 0% phytotoxicity means no crop injury.

Orobanche cumana = assay: Test D control of Orobanche cumana in resistant sunflower; type: in vivo
Description: The purpose of this test was to evaluate the efficacy of tribenuron-methyl to control Orobanche cumana before and after crop emergence from the soil. Various herbicide treatments were evaluated using six replications of each treatment. Treatments investigated the following modes of application: seed coating, pre-emergence soil incorporation, bare-ground pre-emergence broadcast application, and post-emergence broadcast application. All herbicide treatments used formulated herbicide compositions.
For seed coating treatments, 3 mg of Orobanche cumana seeds were added to each pot containing a growing mixture of 60% dry loamy soil, 20% sand and 20% of peat, the growing mixture having an organic matter content of 4.2% and a pH of 8.05. The pots were placed in plastic trays and watered to the extent of 25% of soil weight. Pots were kept in a greenhouse for 8 to 10 days at about 24° C. during the day and 20° C. at night. Eight seeds of BC4-M5M12 sunflower resistant mutant were sown manually in the pots contaminated with Orobanche, at the end of the incubation period of the parasitic weed seeds.
Seeds were first coated using a table-top laboratory fluid bed equipped with a coating device (“Strea 1 Aerocoater” made by Niro Aeromatic, Haupstrasse 145, CH-4416 Bubendorf, Switzerland) and a coating solution containing about 23% Sepiret 8330® (coating composition sold by Seppic, 75 quai d'Orsay Paris 75321 cedex 07 France) and 77% water at the rate of 3 L/100 Kg of seeds. After coating, the seeds were dried in a fluid bed drier at 35° C. […] The coated seeds were then dried at ambient temperature and stored until sowing.
The soil was then thoroughly mixed by hand and dispensed into the pots. The quantities of tribenuron-methyl used in these treatments are expressed in g a.i./ha based on the soil volume and pot dimensions. The quantities applied were 11.25 and 22.5 g a.i./ha.
The effect of the various treatments was evaluated 35 days after sowing. The sunflower roots were cleaned by washing in water, and the presence of Orobanche nodules was determined visually and by weighing root wet mass in comparison to check plants free of Orobanche infestation. […] The nodules caused by Orobanche increased root weight, and a correlation (r=0.7) was found between visual scores and weight measurements. Thus the weighing technique could be used to corroborate visual efficacy scorings. Orobanche emergence was also scored but found to be less useful to evaluate treatment efficiency at the evaluation timing of this test.

M5M12 = assay: Test B greenhouse phytotoxicity, M5M12; type: in vivo, sunflower; conditions: in vivo
How it was run: as §1

BC4-M5M11 = assay: Test B greenhouse phytotoxicity, BC4-M5M11; type: in vivo, sunflower; conditions: in vivo
How it was run: as §1

[2] = test system: homozygous progeny of the three mutant sources; type: in vivo, sunflower; conditions: Test B application rates, post-emergence
How it was run: as §1

M5M7 = assay: Test B greenhouse phytotoxicity, M5M7; type: in vivo, sunflower; conditions: in vivo
How it was run: as §1

BC4-M5M12 = assay: Test B greenhouse phytotoxicity, BC4-M5M12; type: in vivo, sunflower; conditions: in vivo
How it was run: as §1

'M2' seeds = assay: Hydroponic selection of M2 seeds with sulfonylurea herbicides; type: in vivo, sunflower; conditions: hydroponic beds
Description: ‘M2’ seeds were seeded in individual hydroponic beds described as “Large-Scale Hydroponic Screening System” in U.S. Pat. No. 5,084,082 and treated with sulfonylurea herbicides. For each treatment, 10,000 seeds were added per bed. […] Most of the treatments used thifensulfuron-methyl at 20, 40 or 50 μg/L or rimsulfuron at 40 or 80 μg/L. Five plants showing resistance to sulfonylurea herbicides were found during various selection experiments; these are identified in Table 2.

[3] = post-emergence T1 3 + T3 3 g a.i./ha
[4] = post-emergence T1 11.25 + T3 11.25 g a.i./ha
[5] = post-emergence T1 22.5 g a.i./ha
[6] = post-emergence T2 11.25 g a.i./ha
[7] = post-emergence T2 22.5 g a.i./ha
[8] = post-emergence T3 11.25 g a.i./ha
[9] = post-emergence T3 22.5 g a.i./ha
[10] = seed coating 11.25 + post-emergence T2 11.25 g a.i./ha
[11] = seed coating 11.25 + post-emergence T3 11.25 g a.i./ha

COC(=O)c1ccccc1S(=O)(=O)NC(=O)Nc1nc(C)nc(OC)n1 [Metsulfuron-methyl, metsulfuron-methyl]
% Control in Hybrid 7 [1, 3]: 92%
% Control in Hybrid 12 [1, 3]: 90%
% Control in Hybrid 7 ([1]; post-emergence T1 3 g a.i./ha): 65%
% Control in Hybrid 12 ([1]; post-emergence T1 3 g a.i./ha): 63%
% Control in Hybrid 7 ([1]; post-emergence T3 3 g a.i./ha): 93%
% Control in Hybrid 12 ([1]; post-emergence T3 3 g a.i./ha): 95%
control of Orobanche ([1]; single late post-emergence treatment with 3 g a.i./ha): excellent control

COC(=O)c1ccccc1S(=O)(=O)NC(=O)N(C)c1nc(C)nc(OC)n1 [Tribenuron-methyl, tribenuron-methyl]
Maximum Phytotoxicity (BC4-M5M7): 10%
Phytotoxicity Rating After Treatment (BC4-M5M12 × PHA155; postemergence 11.25 g a.i./ha, 15 DAT): 18%
Control (Orobanche cumana; post-emergence broadcast spray 2.25 g a.i./ha): 63%
Control (Orobanche cumana; pre-emergence broadcast spray 11.25 g a.i./ha + post-emergence broadcast spray 11.25 g a.i./ha): 78%
Control (Orobanche cumana; pre-emergence broadcast spray 22.5 g a.i./ha): 40%
Control (Orobanche cumana; pre-emergence soil incorporation 11.25 g a.i./ha): 55%
Control (Orobanche cumana; pre-emergence soil incorporation 22.5 g a.i./ha): 72%
Control (Orobanche cumana; seed coating 0.00001 mg a.i./g + post-emergence broadcast spray 2.25 g a.i./ha): 63%
Control (Orobanche cumana; seed coating 0.00001 mg a.i./g + post-emergence broadcast spray 11.25 g a.i./ha): 70%
Control (Orobanche cumana; seed coating 0.00001 mg a.i./g, host BC4-M5M12, 35 days after sowing): 8%
Control (Orobanche cumana; seed coating 0.1 mg a.i./g + post-emergence broadcast spray 2.25 g a.i./ha): 85%
Control (Orobanche cumana; seed coating 0.1 mg a.i./g + post-emergence broadcast spray 11.25 g a.i./ha): 80%
Control (Orobanche cumana; seed coating 0.1 mg a.i./g, host BC4-M5M12, 35 days after sowing): 37%
Control (Orobanche cumana; seed coating 10 mg a.i./g + post-emergence broadcast spray 2.25 g a.i./ha): 82%
Control (Orobanche cumana; seed coating 10 mg a.i./g + post-emergence broadcast spray 11.25 g a.i./ha): 89%
Maximum Phytotoxicity (M5M12): 7.5%
Maximum Phytotoxicity (BC4-M5M11): 17.5%
tolerance of the mutants [2]: good tolerance
Maximum Phytotoxicity (M5M7): 12.5%
rate needed for good control of Orobanche ([1]; greenhouse test, Hybrid 7 and Hybrid 12): 22.5 g a.i./ha
% Control in Hybrid 7 [1, 4]: 85%
% Control in Hybrid 12 [1, 4]: 85%
% Control in Hybrid 7 [1, 5]: 72%
% Control in Hybrid 12 [1, 5]: 73%
% Control in Hybrid 7 [1, 6]: 77%
% Control in Hybrid 12 [1, 6]: 73%
% Control in Hybrid 7 [1, 7]: 82%
% Control in Hybrid 12 [1, 7]: 83%
% Control in Hybrid 7 [1, 8]: 78%
% Control in Hybrid 12 [1, 8]: 80%
% Control in Hybrid 7 [1, 9]: 87%
% Control in Hybrid 12 [1, 9]: 87%
% Control in Hybrid 7 [1, 10]: 77%
% Control in Hybrid 12 [1, 10]: 78%
% Control in Hybrid 7 [1, 11]: 82%
% Control in Hybrid 12 [1, 11]: 83%
Maximum Phytotoxicity (BC4-M5M12): 20%

COC(=O)c1cccc(C)c1S(=O)(=O)NC(=O)Nc1nc(OCC(F)(F)F)nc(N(C)C)n1 [Triflusulfuron-methyl, triflusulfuron-methyl]
Phytotoxicity Rating After Treatment (BC4-M5M12 × PHA155; postemergence 7.5 g a.i./ha, 7 DAT): 22%
Phytotoxicity Rating After Treatment (BC4-M5M12 × PHA155; postemergence 7.5 g a.i./ha, 15 DAT): 22%
Phytotoxicity Rating After Treatment (BC4-M5M12 × PHA155; postemergence 7.5 g a.i./ha, 30 DAT): 25%
Phytotoxicity Rating After Treatment (BC4-M5M12 × PHA155; postemergence 15 g a.i./ha, 7 DAT): 38%
Phytotoxicity Rating After Treatment (BC4-M5M12 × PHA155; postemergence 15 g a.i./ha, 15 DAT): 45%
Phytotoxicity Rating After Treatment (BC4-M5M12 × PHA155; postemergence 15 g a.i./ha, 30 DAT): 43%
suitability as selection agent ('M2' seeds): insufficiently active on sunflower
